Source: patent US7592358B2 (Boehringer Ingelheim International GmbH, priority 2004, dated 2009)

Target: T1, hMCH-1R (Homo sapiens, UniProt Q99705)
T1 construct: expressed in transfected cells; host or cells: CHO/Galpha16 cells
Experiment: MCH-1 receptor binding test
Settings: ^125I-MCH binding to membranes from CHO/Galpha16 cells stably transfected with human hMCH-1R
Procedure: Membranes from CHO/Galpha16 cells stably transfected with human hMCH-1R are resuspended using a syringe (needle 0.6×25 mm) and diluted in test buffer (50 mM HEPES, 10 mM MgCl2, 2 mM EGTA, pH 7.00; 0.1% bovine serum albumin (protease-free), 0.021% bacitracin, 1 μg/mL aprotinin, 1 μg/mL leupeptin and 1 μM phosphoramidone) to a concentration of 5 to 15 μg/mL. […] After the incubation the reaction is filtered using a cell harvester through 0.5% PEI treated fiberglass filters (GF/B, Unifilter Packard). The membrane-bound radioactivity retained on the filter is then determined after the addition of scintillator substance (Packard Microscint 20) in a measuring device (TopCount of Packard). […] The analysis of the concentration binding curve is carried out on the assumption of one receptor binding site.

T1 sequence (Q99705 whole entry): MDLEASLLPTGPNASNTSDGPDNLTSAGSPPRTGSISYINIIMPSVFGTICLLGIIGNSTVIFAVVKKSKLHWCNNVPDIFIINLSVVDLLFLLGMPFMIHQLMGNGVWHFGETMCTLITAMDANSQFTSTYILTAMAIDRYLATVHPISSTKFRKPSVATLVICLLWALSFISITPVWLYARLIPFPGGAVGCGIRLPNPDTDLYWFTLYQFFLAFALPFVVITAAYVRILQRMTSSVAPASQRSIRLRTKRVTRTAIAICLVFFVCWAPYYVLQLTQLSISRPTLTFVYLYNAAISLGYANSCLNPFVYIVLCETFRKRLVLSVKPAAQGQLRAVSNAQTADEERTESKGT

IC50 [nM] | Structure (SMILES)
6.2 | Cc1cc(C#Cc2ccc(-c3ccc(Cl)cc3)cn2)ccc1OCCN(C1CCCCC1)C1CCCC1 [Example 1.9, (2-{4-[5-(4-chlorophenyl)pyridin-2-ylethynyl]-2-methylphenoxy}ethyl)cyclohexylcyclopentylamine]
31 | CC1(O)CCN(Cc2cc3cc(C#Cc4ccc(-c5ccc(Cl)cc5)cn4)ccc3s2)CC1 [Example 22.3, 1-{5-[5-(4-chlorophenyl)pyridin-2-ylethynyl]benzo[b]thiophen-2-ylmethyl}-4-methylpiperidin-4-ol]
